{
  "source": "patent US8685974B2",
  "about": "(Bayer CropScience AG, priority 2009, dated 2014)",
  "data": [
    {"assay": "physchem", "conditions": "pH 2.7", "values": [
      {"smiles": "CCC(=O)Nc1cc(-c2cn(CC)nc2-c2cccs2)ccn1", "note": "[N-{4-[1-Ethyl-3-(2-thienyl)-1H-pyrazol-4-yl]pyridin-2-yl}propanamide]", "log p": 1.65},
      {"smiles": "Brc1csc(-c2cc[nH]n2)c1", "note": "[3-(4-Bromo-2-thienyl)-1H-pyrazole]", "log p": 1.99},
      {"smiles": "Cc1csc(-c2ccnn2C(C)C)c1", "note": "[1-Isopropyl-5-(4-methyl-2-thienyl)-1H-pyrazole]", "log p": 3.18},
      {"smiles": "Cc1csc(-c2nn(C)cc2I)c1", "note": "[4-Iodo-1-methyl-3-(4-methyl-2-thienyl)-1H-pyrazole]", "log p": 3.18},
      {"smiles": "CCC(C)n1cc(-c2ccnc(Cl)c2)c(-c2ccc(Cl)s2)n1", "note": "(stereo not drawn) [2-Chloro-4-[1-sec-butyl-3-(5-chloro-2-thienyl)-1H-pyrazol-4-yl]pyridine]", "log p": 4.9},
      {"smiles": "CSc1ccc(-c2nn(C(C)C)cc2-c2ccncc2)s1", "note": "[4-[1-Isopropyl-3-(5-methylsulfanyl-2-thienyl)-1H-pyrazol-4-yl]pyridine]", "log p": 1.79},
      {"smiles": "CSc1ccc(-c2c(-c3ccncc3)cnn2C(C)C)s1", "note": "[4-[1-Isopropyl-5-(5-methylsulfanyl-2-thienyl)-1H-pyrazol-4-yl]pyridine]", "log p": 1.78},
      {"smiles": "CCC(=O)Nc1cc(-c2cn(CC)nc2-c2cccs2)ccn1", "note": "[Example 149, N-{4-[1-Ethyl-3-(2-thienyl)-1H-pyrazol-4-yl]pyridin-2-yl}propanamide]", "chromatographic logP": 1.65},
      {"smiles": "Clc1csc(-c2n[nH]cc2I)c1", "note": "[3-(4-chloro-2-thienyl)-4-iodo-1H-pyrazole]", "log p": 2.68},
      {"smiles": "CCn1nccc1-c1cccs1", "note": "[1-Ethyl-5-(2-thienyl)-1H-pyrazole]", "log p": 2.18},
      {"smiles": "CCC(C)n1cc(-c2ccnc(Br)c2)c(-c2ccc(Cl)s2)n1", "note": "(stereo not drawn) [2-Bromo-4-[1-sec-butyl-3-(5-chloro-2-thienyl)-1H-pyrazol-4-yl]pyridine]", "log p": 5.03},
      {"smiles": "CCC(C)n1cc(I)c(-c2cccs2)n1", "note": "(stereo not drawn) [1-sec-Butyl-4-iodo-3-(2-thienyl)-1H-pyrazole]", "log p": 4.12},
      {"smiles": "CCC(C)n1cc(-c2ccnc(NC(C)=O)c2)c(-c2ccc(Cl)s2)n1", "note": "(stereo not drawn) [N-{4-[1-sec-butyl-3-(5-chloro-2-thienyl)-1H-pyrazol-4-yl]pyridin-2-yl}acetamide]", "log p": 2.94},
      {"smiles": "Clc1ccc(-c2nn(C3CC3)cc2-c2ccncc2)s1", "note": "[4-[1-Cyclopropyl-3-(5-chloro-2-thienyl)-1H-pyrazol-4-yl]pyridine]", "log p": 1.62},
      {"smiles": "CCC(C)n1nccc1-c1cc(C)cs1", "note": "(stereo not drawn) [1-sec-Butyl-5-(4-methyl-2-thienyl)-1H-pyrazole]", "log p": 3.65},
      {"smiles": "CCC(C)n1nc(-c2ccc(Cl)s2)c(-c2ccncc2)c1F", "note": "(stereo not drawn) [4-[3-(5-Chloro-2-thienyl)-5-fluoro-1-secbutyl-1H-pyrazol-4-yl]pyridine]", "log p": 2.61},
      {"smiles": "CC(C)n1ccc(-c2cc(Br)cs2)n1", "note": "[3-(4-Bromo-2-thienyl)-1-isopropyl-1H-pyrazole]", "log p": 3.61},
      {"smiles": "CC(C)n1ncc(I)c1-c1cccs1", "note": "[4-Iodo-1-isopropyl-5-(2-thienyl)-1H-pyrazole]", "log p": 3.66},
      {"smiles": "CN(C)C=CC(=O)c1cc(Br)cs1", "note": "[1-(4-Bromo-2-thienyl)-3-(dimethylamino)prop-2-en-1-one]", "log p": 1.94},
      {"smiles": "CCn1cc(-c2ccncc2)c(-c2cccs2)n1", "note": "[4-[1-Ethyl-3-(2-thienyl)-1H-pyrazol-4-yl]pyridine]", "log p": 0.75},
      {"smiles": "CCn1ccc(-c2cc(Br)cs2)n1", "note": "[3-(4-Bromo-2-thienyl)-1-ethyl-1H-pyrazole]", "log p": 3.04},
      {"smiles": "CC(C)n1nccc1-c1cc(Br)c(Br)s1", "note": "[5-(4,5-Dibromo-2-thienyl)-1-isopropyl-1H-pyrazole]", "log p": 4.44},
      {"smiles": "Cc1c(Br)c(-c2ccc(Cl)s2)nn1C(C)C", "note": "[4-Bromo-3-(5-chloro-2-thienyl)-1-isopropyl-5-methyl-1H-pyrazole]", "log p": 5.35},
      {"smiles": "CCC(C)n1cc(-c2ccncc2)c(-c2ccc(F)s2)n1", "note": "(stereo not drawn) [4-[1-sec-butyl-3-(5-fluoro-2-thienyl)-1H-pyrazol-4-yl]pyridine]", "log p": 1.78},
      {"smiles": "CC(=O)Nc1cc(-c2cn(CC(C)C)nc2-c2ccc(Cl)s2)cc[n+]1[O-]", "note": "[N-{4-[3-(5-chloro-2-thienyl)-1-isobutyl-1H-pyrazol-4-yl]-1-oxidopyridin-2-yl}acetamide]", "log p": 2.86},
      {"smiles": "CCC(C)n1cc(-c2ccnc(C(=O)NC(C)C)c2)c(-c2ccc(Cl)s2)n1", "note": "(stereo not drawn) [4-[1-sec-Butyl-3-(5-chloro-2-thienyl)-1H-pyrazol-4-yl]-N-isopropylpyridine-2-carboxamide]", "log p": 4.82},
      {"smiles": "CN(C)C=CC(=O)c1cccs1", "note": "[3-(Dimethylamino)-1-(2-thienyl)prop-2-en-1-one]", "log p": 1.33},
      {"smiles": "Clc1csc(-c2cc[nH]n2)c1", "note": "[3-(4-Chloro-2-thienyl)-1H-pyrazole]", "log p": 1.91},
      {"smiles": "Brc1cc(-c2cc[nH]n2)sc1Br", "note": "[3-(4,5-Dibromo-2-thienyl)-1H-pyrazole]", "log p": 2.74},
      {"smiles": "CCC(C)n1cc(-c2ccnc(C#CC3CC3)c2)c(-c2ccc(Cl)s2)n1", "note": "(stereo not drawn) [4-[1-sec-Butyl-3-(5-chloro-2-thienyl)-1H-pyrazol-4-yl]-2-(cyclopropylethynyl)pyridine]", "log p": 4.56},
      {"smiles": "CC(C)n1cc(-c2ccnc(NCc3ccccc3)n2)c(-c2ccc(Cl)s2)n1", "note": "[N-Benzyl-4-[3-(5-chloro-2-thienyl)-1-isopropyl-1H-pyrazol-4-yl]pyrimidin-2-amine]", "log p": 3.81},
      {"smiles": "CC(=O)N(C(C)=O)c1cc(-c2cn(C(C)C)nc2-c2ccc(Cl)s2)ccn1", "note": "[N-Acetyl-N-{4-[3-(5-chloro-2-thienyl)-1-isopropyl-1H-pyrazol-4-yl]pyridin-2-yl}acetamide]", "log p": 3.33},
      {"smiles": "Cc1n[nH]c(-c2ccc(Cl)s2)c1-c1ccncc1", "note": "[4-[5-(5-Chloro-2-thienyl)-3-methyl-1H-pyrazol-4-yl]pyridine]", "log p": 1.07},
      {"smiles": "CC(C)n1ccc(-c2cc(Br)c(Br)s2)n1", "note": "[3-(4,5-Dibromo-2-thienyl)-1-isopropyl-1H-pyrazole]", "log p": 4.64},
      {"smiles": "CCCn1ccc(-c2cc(C)cs2)n1", "note": "[3-(4-Methyl-2-thienyl)-1-propyl-1H-pyrazole]", "log p": 3.07},
      {"smiles": "CSc1nccc(C(=CN(C)C)C(=O)c2ccc(Cl)s2)n1", "note": "[3-(Dimethylamino)-1-(5-chloro-2-thienyl)-2-[2-(methylsulfanyl)pyrimidin-4-yl]prop-2-en-1-one]", "log p": 2.27},
      {"smiles": "CN(C)C=CC(=O)c1cc(Br)c(Br)s1", "note": "[1-(4,5-Dibromo-2-thienyl)-3-(dimethylamino)prop-2-en-1-one]", "log p": 2.68},
      {"smiles": "Cc1csc(-c2nn(C(C)C)cc2I)c1", "note": "[4-Iodo-1-isopropyl-3-(4-methyl-2-thienyl)-1H-pyrazole]", "log p": 4.26},
      {"smiles": "CCCc1c(I)c(-c2sccc2C)nn1C", "note": "[4-Iodo-1-methyl-3-(3-methyl-2-thienyl)-5-propyl-1H-pyrazole]", "log p": 4.03},
      {"smiles": "CC(C)Cn1cc(-c2ccnc3ccccc23)c(-c2ccc(Cl)s2)n1", "note": "[4-[3-(5-chloro-2-thienyl)-1-isobutyl-1H-pyrazol-4-yl]quinoline]", "log p": 3.69},
      {"smiles": "CC(C)Cn1cc(-c2cc(N)ncn2)c(-c2ccc(Cl)s2)n1", "note": "[6-[3-(5-chloro-2-thienyl)-1-isobutyl-1H-pyrazol-4-yl]pyrimidin-4-amine]", "log p": 1.97},
      {"smiles": "CCCc1cc(-c2sccc2C)n(C)n1", "note": "[1-Methyl-5-(3-methyl-2-thienyl)-3-propyl-1H-pyrazole]", "log p": 3.34},
      {"smiles": "CCC(C)n1ncc(-c2ccncc2)c1-c1ccc(Cl)s1", "note": "(stereo not drawn) [4-[1-sec-Butyl-5-(5-chloro-2-thienyl)-1H-pyrazol-4-yl]pyridine]", "log p": 1.94},
      {"smiles": "CC(C)n1cc(-c2ccncc2)c(-c2ccc(F)s2)n1", "note": "[4-[1-Isopropyl-3-(5-fluoro-2-thienyl)-1H-pyrazol-4-yl]pyridine]", "log p": 1.53}
    ]},
    {"assay": "physchem", "conditions": "pH 7.8", "values": [
      {"smiles": "CCC(=O)Nc1cc(-c2cn(CC)nc2-c2cccs2)ccn1", "note": "[Example 149, N-{4-[1-Ethyl-3-(2-thienyl)-1H-pyrazol-4-yl]pyridin-2-yl}propanamide]", "chromatographic logP": 2.26}
    ]}
  ]
}
